According to patent US6420313B1, “Thienylalkylamino-1,3,5-triazines and the use thereof as herbicides” (Bayer Aktiengesellschaft, priority 1998, dated 2002):

Columns and labels:
Format in all cases: in vivo
Datura = test: Post-emergence test/greenhouse, Datura; details: after three weeks
Method: (§1) Solvent: 5 parts by weight of acetone
(§2) Emulsifier: 1 part by weight of alkylaryl polyglycol ether
(§3) To produce a suitable preparation of active compound, 1 part by weight of active compound is mixed with the stated amount of solvent, the stated amount of emulsifier is added and the concentrate is diluted with water to the desired concentration.
(§4) Test plants of a height of 5-15 cm are sprayed with the preparation of active compound such that the particular amounts of active compound desired are applied per unit area. The concentration of the spray liquor is chosen so that the particular amounts of active compound desired are applied in 1000 l of water/ha.
(§5) After three weeks, the degree of damage to the plants is rated in % damage in comparison to the development of the untreated control.
(§6) 0%=no effect (like untreated control)

[1] = system: crop plants, such as, for example, maize, barley and wheat; test: Post-emergence test, tolerance by crop plants; details: result in words
Method: as §1, §2, §3, §4, §5, §6

Solanum [2] = test: Post-emergence test/greenhouse, Solanum; details: after three weeks
Method: as §1, §2, §3, §4, §5, §6

Viola = test: Post-emergence test/greenhouse, Viola; details: after three weeks
Method: as §1, §2, §3, §4, §5, §6

Ipomoea = test: Post-emergence test/greenhouse, Ipomoea; details: after three weeks
Method: as §1, §2, §3, §4, §5, §6

wheat [3] = test: Post-emergence test/greenhouse, wheat; details: after three weeks
Method: as §1, §2, §3, §4, §5, §6

barley = test: Post-emergence test/greenhouse, barley; details: after three weeks
Method: as §1, §2, §3, §4, §5, §6

weeds [4] = test: Post-emergence test, activity against weeds; details: result in words
Method: as §1, §2, §3, §4, §5, §6

weeds [5] = test: Pre-emergence test, activity against weeds; details: result in words
Method: as §1, §2, §3
(§7) Seeds of the test plants are sown in normal soil. After about 24 hours, the soil is sprayed with the preparation of active compound such that the particular amount of active compound desired is applied per unit area. The concentration of the spray liquor is chosen so that the particular amount of active compound desired is applied in 1000 liters of water per hectare.
as §5, §6

Setaria = test: Post-emergence test/greenhouse, Setaria; details: 500 g of ai./ha, after three weeks
Method: as §1, §2, §3, §4, §5, §6

[6] = system: crop plants, such as, for example, cotton, maize, wheat and barley; test: Pre-emergence test, tolerance by crop plants; details: result in words
Method: as §1, §2, §3, §7, §5, §6

Sinapis = test: Pre-emergence test/greenhouse, Sinapis; details: 1000 g of ai./ha, after three weeks
Method: as §1, §2, §3, §7, §5, §6

Alopecurus = test: Pre-emergence test/greenhouse, Alopecurus; details: after three weeks
Method: as §1, §2, §3, §7, §5, §6

Amaranthus = test: Pre-emergence test/greenhouse, Amaranthus; details: after three weeks
Method: as §1, §2, §3, §7, §5, §6

maize = test: Pre-emergence test/greenhouse, maize; details: after three weeks
Method: as §1, §2, §3, §7, §5, §6

wheat [7] = test: Pre-emergence test/greenhouse, wheat; details: 500 g of ai./ha, after three weeks
Method: as §1, §2, §3, §7, §5, §6

Digitaria = test: Pre-emergence test/greenhouse, Digitaria; details: 500 g of ai./ha, after three weeks
Method: as §1, §2, §3, §7, §5, §6

Veronica = test: Pre-emergence test/greenhouse, Veronica; details: 504 h, 500 g of ai./ha, after three weeks, read-out: degree of damage, Veronica
Method: as §1, §2, §3, §7, §5, §6

Chenopodium = test: Pre-emergence test/greenhouse, Chenopodium; details: 500 g of ai./ha, after three weeks
Method: as §1, §2, §3, §7, §5, §6

Solanum [8] = test: Pre-emergence test/greenhouse, Solanum; details: 500 g of ai./ha, after three weeks
Method: as §1, §2, §3, §7, §5, §6

Structure (SMILES): CCC(CCc1cc(Br)cs1)Nc1nc(N)nc(C(C)(C)F)n1 (racemic) [Example 2]
- degree of damage, Datura (Datura; 125 g of ai./ha): 95%
- tolerance by crop plants [1]: tolerated well
- degree of damage, Solanum (Solanum [2]; 125 g of ai./ha): 100%
- degree of damage, Viola (Viola; 125 g of ai./ha): 95%
- degree of damage, Ipomoea (Ipomoea; 125 g of ai./ha): 95%
- degree of damage, wheat (wheat [3]; 125 g of ai./ha): 0%
- degree of damage, barley (barley; 125 g of ai./ha): 0%
- activity against weeds (weeds [4]): strong activity against weeds

Structure (SMILES): CCC(CCc1ccc(Br)s1)Nc1nc(N)nc(C(C)F)n1 (racemic) [Example 4]
- activity against weeds (weeds [5]): strong activity against weeds
- degree of damage, Datura (Datura; 500 g of ai./ha): 95%
- tolerance by crop plants [1]: tolerated well
- degree of damage, Solanum (Solanum [2]; 500 g of ai./ha): 95%
- degree of damage, Viola (Viola; 500 g of ai./ha): 100%
- degree of damage, Ipomoea (Ipomoea; 500 g of ai./ha): 95%
- degree of damage, wheat (wheat [3]; 500 g of ai./ha): 0%
- degree of damage, Setaria (Setaria): 80%
- degree of damage, barley (barley; 500 g of ai./ha): 0%
- activity against weeds (weeds [4]): strong activity against weeds
- tolerance by crop plants [6]: largely tolerated well

Structure (SMILES): CCC(CCc1ccc(Br)s1)Nc1nc(N)nc(C(C)(C)F)n1 (racemic) [Example 5]
- activity against weeds (weeds [5]): strong activity against weeds
- degree of damage, Datura (Datura; 500 g of ai./ha): 100%
- tolerance by crop plants [1]: tolerated well
- degree of damage, Solanum (Solanum [2]; 500 g of ai./ha): 100%
- degree of damage, Viola (Viola; 500 g of ai./ha): 95%
- degree of damage, Ipomoea (Ipomoea; 500 g of ai./ha): 95%
- degree of damage, wheat (wheat [3]; 500 g of ai./ha): 0%
- degree of damage, barley (barley; 500 g of ai./ha): 0%
- activity against weeds (weeds [4]): strong activity against weeds
- tolerance by crop plants [6]: largely tolerated well

Structure (SMILES): CC(CCCc1cccs1)Nc1nc(N)nc(C(C)(C)F)n1 (stereo not drawn) [drawing 225]
- degree of damage, Sinapis (Sinapis): 90%
- degree of damage, Alopecurus (Alopecurus; 1000 g of ai./ha): 80%
- degree of damage, Amaranthus (Amaranthus; 1000 g of ai./ha): 95%
- degree of damage, maize (maize; 1000 g of ai./ha): 0%

Structure (SMILES): CCC(CCc1ccc(Br)s1)Nc1nc(N)nc(C(C)F)n1 (stereo not drawn) [drawing 226]
- degree of damage, wheat (wheat [7]): 0%
- degree of damage, maize (maize; 500 g of ai./ha): 0%

Structure (SMILES): CCC(CCc1ccc(Br)s1)Nc1nc(N)nc(C(C)(C)F)n1 (stereo not drawn) [drawing 227]
- degree of damage, wheat (wheat [7]): 0%
- degree of damage, maize (maize; 500 g of ai./ha): 0%

Structure (SMILES): CCC(CCc1cc(Br)cs1)Nc1nc(NC(C)=O)nc(C(C)F)n1 (stereo not drawn) [drawing 228]
- degree of damage, maize (maize; 500 g of ai./ha): 0%

Structure (SMILES): CCC(CCc1cc(Br)cs1)Nc1nc(NC(C)=O)nc(C(C)(C)F)n1 (stereo not drawn) [drawing 229]
- degree of damage, Alopecurus (Alopecurus; 500 g of ai./ha): 95%
- degree of damage, wheat (wheat [7]): 0%

Structure (SMILES): CCC(CCc1sccc1Br)Nc1nc(N)nc(C(C)(C)F)n1 (stereo not drawn) [drawing 230]
- degree of damage, Amaranthus (Amaranthus; 500 g of ai./ha): 100%

Structure (SMILES): CCC(CCc1sccc1Br)Nc1nc(N)nc(C(C)F)n1 (stereo not drawn) [drawing 231]
- degree of damage, Amaranthus (Amaranthus; 500 g of ai./ha): 100%

Structure (SMILES): CCC(CCc1sccc1Br)Nc1nc(NC(C)=O)nc(C(C)F)n1 (stereo not drawn) [drawing 232]
- degree of damage, wheat (wheat [7]): 0%
- degree of damage, Amaranthus (Amaranthus; 500 g of ai./ha): 100%

Structure (SMILES): CCC(CCc1cc(C)sc1C)Nc1nc(N)nc(C(C)F)n1 (stereo not drawn) [drawing 233]
- degree of damage, wheat (wheat [7]): 0%
- degree of damage, Amaranthus (Amaranthus; 500 g of ai./ha): 100%
- degree of damage, maize (maize; 500 g of ai./ha): 0%

Structure (SMILES): CCC(CCc1cc(C)sc1C)Nc1nc(NC(C)=O)nc(C(C)(C)F)n1 (stereo not drawn) [drawing 234]
- degree of damage, wheat (wheat [7]): 0%
- degree of damage, maize (maize; 500 g of ai./ha): 0%

Structure (SMILES): CCC(CCc1ccc(Br)s1)Nc1nc(N)nc(C(C)F)n1 (stereo not drawn) [drawing 236]
- degree of damage, Digitaria (Digitaria): 100%
- pest or weed control at 500 g/ha (Veronica): 100%
- degree of damage, Chenopodium (Chenopodium): 100%
- degree of damage, Solanum (Solanum [8]): 100%

Structure (SMILES): CCC(CCc1ccc(Br)s1)Nc1nc(N)nc(C(C)(C)F)n1 (stereo not drawn) [drawing 237]
- degree of damage, Digitaria (Digitaria): 100%
- pest or weed control at 500 g/ha (Veronica): 100%
- degree of damage, Chenopodium (Chenopodium): 100%
- degree of damage, Solanum (Solanum [8]): 100%

Structure (SMILES): CCC(CCc1cc(Br)cs1)Nc1nc(NC(C)=O)nc(C(C)F)n1 (stereo not drawn) [drawing 238]
- pest or weed control at 500 g/ha (Veronica): 100%
- degree of damage, Chenopodium (Chenopodium): 100%

Structure (SMILES): CCC(CCc1cc(Br)cs1)Nc1nc(NC(C)=O)nc(C(C)(C)F)n1 (stereo not drawn) [drawing 239]
- degree of damage, Digitaria (Digitaria): 100%
- pest or weed control at 500 g/ha (Veronica): 100%
- degree of damage, Chenopodium (Chenopodium): 100%
- degree of damage, Solanum (Solanum [8]): 100%
